The values below are quoted from earlier work in patent publication US20150110862A1, “Sweet Gum Fruit Extract as a Therapeutic Agent” (Board of Supervisors of Louisiana State University and …, priority 2007, published 2015).

≈ marks a conversion by molar mass, not a printed value.

For data set [1], the system named is UVB-radiation-induced photocarcinogenesis. The following applies: oral administration, literature.
The subject of data set [2] is two-stage carcinogenesis. The following applies: literature.
Data set [3] concerns 39 human cancer cell lines. The following applies: literature.
Data set [4] concerns human prostate cancer PC3 cells. The following applies: published articles.

Turning to `C=C(C)C1CCC2(C(=O)O)CCC3(C)C(CCC4C56CCC(O)(OC5)C(C)(C)C6CCC43C)C12` (stereo not drawn) [3β,25-epoxy-3α-hydroxylup-20(29)-en-28-oic acid], in data set [1], the “tumor incidence and tumor multiplicity vs control group” value is “approximate halving of the tumor incidence and tumor multiplicity”. The “anti-tumor activity, two-stage carcinogenesis assay” value in data set [2] was “moderate inhibitory activities”.

In the case of `CC(=O)OC[C@]12CC[C@@H](O)C(C)(C)[C@@H]1CC[C@]1(C)[C@@H]2CC=C2[C@@H]3CC(C)(C)CC[C@]3(C(=O)O)CC[C@]21C` [Terpenoid 1, 25-acetoxy-3α-hydroxyolean-12-en-28-oic acid], in data set [3], the “cytotoxicity against 39 human cancer cell lines” value (shortened to “cytotoxicity”) is reported as “strong cytotoxicity”. The “anti-tumor activity, two-stage carcinogenesis assay” value in data set [2] is “moderate inhibitory activities”. In addition, the “IC50 against human prostate cancer PC3 cells (reported)” value in data set [4] is 5.9 µg/mL (≈ 11.5 µM).

Take `C=C(C)[C@@H]1CC[C@]2(C(=O)O)CC[C@]3(C)[C@@H](CC[C@@H]4[C@@]5(C)CCC(=O)C(C)(C)[C@@H]5[C@H](O)C[C@]43C)[C@@H]12` [6β-hydroxy-3-oxolup-20 (29)-en-28-oic acid]: the “cytotoxicity” value in data set [3] is reported as “weaker activity”.

`CC1(C)CCC2(C(=O)O)CCC3(C)C(=CC(=O)C4C5(C)CCC(=O)C(C)(C)C5CCC43C)C2C1` (centres unmarked) [3,11-dioxoolean-12-en-28-oic acid]: the “cytotoxicity” value in data set [3] is given as “weaker activity”.

Regarding `CC1(C)CCC2(C(=O)O)CCC3(C)C(=CCC4C5(CO)CCC(O)C(C)(C)C5CCC43C)C2C1` (stereo not drawn) [3α,25-dihydroxyolean-12-en-28-oic acid], the “cytotoxicity” value in data set [3] is “weaker activity”.
